In ChEMBL document CHEMBL4825780 (ACS Med Chem Lett, 2021):
pIC50: −log10 of the molar value. Activity calls are given as the source filed them. The rule behind the calls is not given here.

Assays:
CDK8/Cyclin C = CDK8/Cyclin C (Homo sapiens, UniProt P49336); assay: Inhibition of tracer 236 binding to recombinant human His-tagged full length CDK8/Cyclin C expressed in baculovirus expression system by Lanthascreen assay
[1] = target: Cyclin-C/Cyclin-dependent kinase 19 (Homo sapiens, UniProt Q9BWU1); assay: Inhibition of tracer 236 binding to recombinant human GST/His-tagged CDK11 (1 to 502 residues)/Cyclin C( 1 to 283 residues) expressed in insect cells by Lanthascreen assay
[2] = Metabolic stability in mouse hepatocytes assessed as half life; type: ADME, cell-based, Hepatocyte
[3] = Metabolic stability in mouse hepatocytes assessed as intrinsic clearance; type: ADME, cell-based, Hepatocyte
[4] = target: T1, Serine/threonine-protein kinase 16 (Homo sapiens, UniProt O75716); assay: Inhibition of human wild type partial length STK16 (G11 to I305 residues) expressed in bacterial expression system at 1 uM measured by Kinomescan method
[5] = tested on: T2, Receptor-type tyrosine-protein kinase FLT3 (Homo sapiens), P36888 [D835V]; assay: Inhibition of human partial length FLT3 […] mutant (V592 to Y969 residues) expressed in mammalian expression system at 1 uM measured by Kinomescan method
T2 sequence (whole entry): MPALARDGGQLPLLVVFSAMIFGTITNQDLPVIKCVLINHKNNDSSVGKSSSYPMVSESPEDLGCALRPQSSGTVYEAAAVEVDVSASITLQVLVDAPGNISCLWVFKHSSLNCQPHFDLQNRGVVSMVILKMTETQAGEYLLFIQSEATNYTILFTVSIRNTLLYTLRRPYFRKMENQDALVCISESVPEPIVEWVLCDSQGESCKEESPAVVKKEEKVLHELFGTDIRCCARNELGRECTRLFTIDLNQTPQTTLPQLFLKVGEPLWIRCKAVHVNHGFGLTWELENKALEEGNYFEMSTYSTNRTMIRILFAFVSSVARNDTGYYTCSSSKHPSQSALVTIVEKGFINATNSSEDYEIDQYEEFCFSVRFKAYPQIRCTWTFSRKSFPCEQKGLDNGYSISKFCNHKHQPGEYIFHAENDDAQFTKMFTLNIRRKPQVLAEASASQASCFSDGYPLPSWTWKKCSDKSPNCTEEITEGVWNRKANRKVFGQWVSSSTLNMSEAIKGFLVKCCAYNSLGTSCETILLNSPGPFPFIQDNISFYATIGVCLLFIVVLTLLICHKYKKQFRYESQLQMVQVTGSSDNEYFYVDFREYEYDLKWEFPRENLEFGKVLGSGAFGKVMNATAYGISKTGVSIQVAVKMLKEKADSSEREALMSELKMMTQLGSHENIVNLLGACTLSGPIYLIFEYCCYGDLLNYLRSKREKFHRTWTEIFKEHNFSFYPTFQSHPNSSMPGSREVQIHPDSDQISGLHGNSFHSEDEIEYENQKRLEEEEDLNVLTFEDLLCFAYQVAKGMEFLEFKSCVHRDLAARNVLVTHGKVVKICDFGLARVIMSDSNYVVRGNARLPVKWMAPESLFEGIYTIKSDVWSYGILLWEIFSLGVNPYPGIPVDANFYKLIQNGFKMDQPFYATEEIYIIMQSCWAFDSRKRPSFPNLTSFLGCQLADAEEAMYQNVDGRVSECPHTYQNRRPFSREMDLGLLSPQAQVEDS

[6] = target: T1, Serine/threonine-protein kinase 16; assay: Inhibition of human wild type partial length STK16 (G11 to I305) expressed in bacterial expression system by Kinomescan method
[7] = Cmax in C57Bl/6 mouse at 10 mg/kg, po; type: ADME, organism-based; parameters: route oral, dose 10 mg/kg; conditions: in vivo
[8] = AUC in C57Bl/6 mouse at 10 mg/kg, po; type: ADME, organism-based; parameters: dose 10 mg/kg; conditions: in vivo
[9] = Half life in C57Bl/6 mouse at 10 mg/kg, po; type: ADME, organism-based; conditions: in vivo
[10] = Clearance in C57Bl/6 mouse at 10 mg/kg, po or 2 mg/kg, iv; type: ADME, organism-based; conditions: in vivo
[11] = Volume of distribution at steady state in C57Bl/6 mouse at 10 mg/kg, po or 2 mg/kg, iv; type: ADME, organism-based; conditions: in vivo, read-out: Vdss
[12] = Oral bioavailability in C57Bl/6 mouse at 10 mg/kg; type: ADME, organism-based; conditions: in vivo
[13] = target: Cyclin-dependent kinase 8 (Homo sapiens, UniProt P49336)
Cyclin-dependent kinase 8, sequence (P49336 whole entry): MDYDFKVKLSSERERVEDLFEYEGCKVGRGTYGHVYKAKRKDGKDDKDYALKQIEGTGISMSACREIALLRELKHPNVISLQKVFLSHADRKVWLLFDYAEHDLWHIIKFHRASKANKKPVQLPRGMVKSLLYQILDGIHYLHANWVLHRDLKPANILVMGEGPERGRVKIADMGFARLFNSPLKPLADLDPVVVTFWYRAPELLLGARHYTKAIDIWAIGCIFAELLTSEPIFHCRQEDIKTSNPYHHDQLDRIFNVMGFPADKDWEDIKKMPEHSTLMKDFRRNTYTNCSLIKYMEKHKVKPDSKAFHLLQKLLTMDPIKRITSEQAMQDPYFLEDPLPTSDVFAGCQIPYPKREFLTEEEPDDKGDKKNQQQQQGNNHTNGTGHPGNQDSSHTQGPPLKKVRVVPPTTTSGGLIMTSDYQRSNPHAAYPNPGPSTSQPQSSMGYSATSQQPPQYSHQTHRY
Description: Inhibition of human CDK8 in human Jurkat cells assessed as inhibition of STAT1 phosphorylation at S727 residue measured after 24 hrs by Western blot assay

CDK8/Cyclin C, sequence (P49336 whole entry, the tested form may be a part): as the sequence (P49336 whole entry) above
CDK8/Cyclin C, sequence (P24863 whole entry, further chain, the tested form may be a part): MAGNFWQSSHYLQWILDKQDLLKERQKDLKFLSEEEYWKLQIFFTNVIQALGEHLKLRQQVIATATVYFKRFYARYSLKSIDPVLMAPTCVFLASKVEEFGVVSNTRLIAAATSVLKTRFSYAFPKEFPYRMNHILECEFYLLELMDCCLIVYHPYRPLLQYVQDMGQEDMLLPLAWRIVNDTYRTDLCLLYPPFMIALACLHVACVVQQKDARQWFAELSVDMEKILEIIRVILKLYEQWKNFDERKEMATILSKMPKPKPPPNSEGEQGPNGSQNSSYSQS
Cyclin-C/Cyclin-dependent kinase 19, sequence (Q9BWU1 whole entry, the tested form may be a part): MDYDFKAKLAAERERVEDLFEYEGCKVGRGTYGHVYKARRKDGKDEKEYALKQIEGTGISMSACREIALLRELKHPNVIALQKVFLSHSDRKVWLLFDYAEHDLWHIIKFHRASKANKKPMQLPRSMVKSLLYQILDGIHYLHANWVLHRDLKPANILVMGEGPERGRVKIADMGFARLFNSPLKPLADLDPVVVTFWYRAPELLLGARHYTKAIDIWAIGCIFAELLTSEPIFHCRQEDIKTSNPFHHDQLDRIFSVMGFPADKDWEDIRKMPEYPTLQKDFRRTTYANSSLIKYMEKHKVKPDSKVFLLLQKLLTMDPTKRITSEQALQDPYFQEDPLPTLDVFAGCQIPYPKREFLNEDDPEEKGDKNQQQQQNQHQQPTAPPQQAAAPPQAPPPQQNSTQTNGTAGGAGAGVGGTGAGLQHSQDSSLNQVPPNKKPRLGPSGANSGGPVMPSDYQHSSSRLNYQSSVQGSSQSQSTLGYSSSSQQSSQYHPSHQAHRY
Cyclin-C/Cyclin-dependent kinase 19, sequence (P24863 whole entry, further chain, the tested form may be a part): as the sequence (P24863 whole entry, further chain, the tested form may be a part) above
T1 sequence (O75716 whole entry, the tested form may be a part): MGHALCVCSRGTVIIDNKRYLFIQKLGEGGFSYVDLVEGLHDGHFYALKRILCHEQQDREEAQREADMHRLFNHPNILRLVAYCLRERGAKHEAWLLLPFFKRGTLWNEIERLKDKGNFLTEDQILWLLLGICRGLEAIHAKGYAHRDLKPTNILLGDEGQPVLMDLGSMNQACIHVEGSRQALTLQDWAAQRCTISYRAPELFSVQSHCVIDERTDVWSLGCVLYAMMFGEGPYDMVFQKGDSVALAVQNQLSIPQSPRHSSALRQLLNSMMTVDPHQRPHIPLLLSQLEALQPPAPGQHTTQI

`Cn1ncc2cc(-c3cnc4[nH]ccc4c3N3CCC4(CC3)CNC(=O)O4)ccc21` showed a pIC50 (CDK8/Cyclin C) of 8.15 and a pIC50 [1] of 8.22.

Work on `Cn1ncc2cc(-c3cnc4[nH]cc(Cl)c4c3N3CCC4(CCNC4=O)CC3)ccc21` yielded a pIC50 (CDK8/Cyclin C) of 8.70, a pIC50 [1] of 8.00 and a half-life [2] of 11 min. The “intrinsic clearance (CLint)” value [3] was 64 µL/min/mg.

For `O=C1NCCC12CCN(c1c(-c3ccc4ncsc4c3)cnc3[nH]ccc13)CC2`, the pIC50 (CDK8/Cyclin C) was 7.60 and the pIC50 [1] was 7.10.

With `O=C1NCCC12CCN(c1c(-c3ccc4ncnn4c3)cnc3[nH]ccc13)CC2` the pIC50 (CDK8/Cyclin C) was 6.56 and the pIC50 [1] was 5.99.

Work on `Cn1ncc2cc(-c3cnc4[nH]ccc4c3N3CCC4(CC3)NC(=O)NC4=O)ccc21` yielded a pIC50 [1] of 8.70.

`Cn1ncc2cc(-c3cnc4[nH]ccc4c3N3CCC4(CC3)CNC4=O)ccc21` showed a pIC50 (CDK8/Cyclin C) of 8.22 and a pIC50 [1] of 8.22.

In the case of `O=C1NCCC12CCN(c1c(-c3ccn4ccnc4c3)cnc3[nH]ccc13)CC2`, the pIC50 (CDK8/Cyclin C) was 7.12 and the pIC50 [1] was 7.17.

With `Cn1ncc2cc(-c3cnc4[nH]nc(Cl)c4c3N3CCC4(CCNC4=O)CC3)ccc21` the pIC50 (CDK8/Cyclin C) was 9.00, the pIC50 [1] was 8.70 and the inhibition [4] was “Active”. For the same compound, the inhibition [5] was “Active”, the pIC50 [6] was 6.97 and the half-life [2] was 46 min. For the same compound, the “intrinsic clearance (CLint)” value [3] was 15 µL/min/mg, the Cmax [7] was 104 ng/mL and the AUC [8] was 864 ng·h/mL. It also gave a half-life [9] of 78 min, a clearance [10] of 17 mL/min/kg and a Vd [11] of 0.8 L/kg. The bioavailability [12] was 8% and the pIC50 [13] was 8.70.

For `Cc1n[nH]c2ncc(C(=O)N3CCC[C@H]3c3ccc(Cl)cc3)cc12`, the pIC50 [13] was 8.52.

Work on `Cn1ncc2cc(-c3cnc4[nH]cnc4c3N3CCC4(CCNC4=O)CC3)ccc21` yielded a pIC50 (CDK8/Cyclin C) of 8.00, a pIC50 [1] of 8.30 and a half-life [2] of 5 min. The “intrinsic clearance (CLint)” value [3] was 158 µL/min/mg.

Compound `O=C1NCCC12CCN(c1c(-c3ccc4scnc4c3)cnc3[nH]ccc13)CC2` has a pIC50 (CDK8/Cyclin C) of 8.22 and a pIC50 [1] of 7.85.

Work on `Cn1ncc2cc(-c3cnc4[nH]ccc4c3N3CCC4(CCNC4=O)C3)ccc21` (stereo not drawn) yielded a pIC50 (CDK8/Cyclin C) of 7.26 and a pIC50 [1] of 7.54.

Work on `O=C1NCCC12CCN(c1c(-c3ccc4[nH]cnc4c3)cnc3[nH]ccc13)CC2` yielded a pIC50 (CDK8/Cyclin C) of 8.30 and a pIC50 [1] of 7.77.

With `Cn1cnc2cc(-c3cnc4[nH]ccc4c3N3CCC4(CCNC4=O)CC3)ccc21` the pIC50 (CDK8/Cyclin C) was 7.49 and the pIC50 [1] was 7.30.

For `Cn1ncc2cc(-c3cnc4[nH]ccc4c3N3CCC4(CCNC4=O)CC3)ccc21`, the half-life [2] was 9 min and the “intrinsic clearance (CLint)” value [3] was 78 µL/min/mg.

`Cn1ncc2cc(-c3cnc4[nH]ncc4c3N3CCC4(CCNC4=O)CC3)ccc21` gave a pIC50 (CDK8/Cyclin C) of 6.75, a pIC50 [1] of 6.67 and a half-life [2] of 11 min. For the same compound, the “intrinsic clearance (CLint)” value [3] was 59 µL/min/mg.

For `Cn1ncc2cc(-c3cnc4[nH]ccc4c3N3CC4(CCNC4=O)C3)ccc21`, the pIC50 (CDK8/Cyclin C) was 6.27 and the pIC50 [1] was 6.37.

Compound `Cn1ncc2cc(-c3cnc4[nH]ccc4c3N3CCC4(CCCNC4=O)CC3)ccc21` has a pIC50 [1] of 8.52.

`Cn1ncc2cc(-c3cnc4[nH]ccc4c3N3CC4(CNC(=O)C4)C3)ccc21` gave a pIC50 (CDK8/Cyclin C) of 6.04 and a pIC50 [1] of 6.16.
